Where two headings read alike, the source gives them in different places.
What was measured:
[1] = test system: SARS-CoV-2 B.1 isolate “FI”; design: method as in Schreiber et al., 2022; conditions: ref Schreiber et al., 2022, read-out: EC50 value against SARS-CoV-2; cited from earlier work
IAV RB1 = test system: IAV RB1; design: method as in Laure et al., 2020; conditions: IAV RB1, medium containing 0.2% BSA; ref Laure et al., 2020; cited from earlier work
[2] = human, in vivo; cited from earlier work
ERK2 = ERK2 content in cell lysates by WES; format: cell-based, Homo sapiens; conditions: Caco-2 and Calu-3 cell lysates, 24 h of treatment
Method: Cells were lysed using cold modified RIPA buffer [0.24% (w/v) tris base (Sigma-Aldrich, St. Louis, Missouri, USA), 0.88% (w/v) NaCl (Carl Roth, Karlsruhe, Germany), 0.2% (v/v) 500 mM ethylenediaminetetraacetic acid (EDTA) (Sigma-Aldrich, St. Louis, Missouri, USA), 1% (v/v) Triton X-100 (Sigma-Aldrich, St. Louis, Missouri, USA), 0.5% (w/v) sodium deoxycholate (Sigma-Aldrich, St. Louis, Missouri, USA), 0.1% (w/v) sodium dodecyl sulfate (SDS) (Carl Roth, Karlsruhe, Germany), 10% (v/v) glycerol (Carl Roth, Karlsruhe, Germany), 0.05% phenylmethylsulfonyl fluoride (PMSF) (Carl Roth, Karlsruhe, Germany), 0.01% Benzonase® Nuclease (Sigma-Aldrich, St. Louis, Missouri, USA), protease inhibitor cocktail (Roche, Basel, Switzerland), and phosphatase inhibitor cocktail (Roche, Basel, Switzerland) in water]. Determination of the protein concentration was performed using the Pierce™ BCA Protein Assay Kit (Thermo Fisher Scientific Inc., Waltham, MA, USA) according to the manufacturer’s instructions. […] Ratios were calculated from the area under the curve of the respective detected signals.

IAV PR8 = assay: Virus yield reduction assay, IAV PR8 (virus titer by RT-qPCR); format: cell-based, Influenza A virus, strain: A/Puerto Rico/8/1934 (H1N1); conditions: 0.2% BSA; for reduction of the virus titer: Calu-3 and Caco-2 cells, 24 h
Method: Calu-3 and Caco-2 cells were seeded in 24-well plates (Greiner Bio-One GmbH, Frickenhausen, Germany) and grown to 90% confluence. The cells were washed once with infection medium [IMDM supplemented with 0.2% bovine serum albumin (BSA) (Carl Roth GmbH + Co. KG, Karlsruhe, Germany) and 1% penicillin–streptomycin] prior to infection with a multiplicity of infection (MOI) of 0.01 of IAV PR8 or SARS-CoV-2 for 1 h in 200 µL of infection medium per well. Afterwards, the virus inoculum was removed completely, and the cells were washed once with infection medium and then treated with 1 mL per well of different concentrations of zapnometinib in infection medium with 1% dimethyl sulfoxide (DMSO) (Merck Millipore, Burlington, MA, USA) for 24 h at 37°C, 5% CO2. Supernatants were harvested and stored at −80°C for subsequent determination of virus titer and EC50 value. Cell lysates were prepared as described in the “Preparation of cell lysates and WES™ analysis” section for WES™ analysis.
The viral titers of IAV and SARS-CoV-2 viruses were determined using a real-time one-step multiplex RT-qPCR method. Briefly, viral nucleic acid extraction was performed using a QIAamp Viral RNA Mini Kit (Qiagen, Venlo, Netherlands) according to the manufacturer’s instructions. A TaqMan-based RT-qPCR assay was carried out using a QuantiNova Pathogen kit (Qiagen, Venlo, Netherlands) with specific primers targeting the SARS-CoV-2 N gene (2019-CoV2-N1F: […], 2019-CoV2-N1R: […], 2019-CoV2-N1P [6FAM]: […] [BHQ1]) and M gene for IAV according to the WHO guidelines. The viral genome copies per mL (gc/mL) were determined based on a standard curve prepared with 10-fold serial dilutions of the target gene. For quality control, nuclease-free water was included in each set of extractions as a negative control to monitor any possible cross-contamination. Moreover, an artificial exogenous QuantiNova RNA internal control (Qiagen, Venlo, Netherlands) was included during the nucleic acid purification to monitor the RNA purification efficiency and the RT-PCR amplification. A Rotor-Gene Q™ Real-Time PCR detection system (Qiagen, Venlo, Netherlands) was used for amplification, and the data were analyzed using Q-Rex software (Qiagen, Venlo, Netherlands).
For EC50 determination, a virus yield reduction assay was performed. The virus titer in the cell culture supernatant was determined and normalized to the solvent control. The EC50 value was determined using the “log(inhibitor) vs. normalized response - Variable slope” equation in GraphPad Prism version 9.4.0.

SARS-CoV-2 N = format: cell-based; conditions: MOI 0.01, 24 h; for reduction of SARS-CoV-2 N (N/ERK2 normalized to solvent control): both cell lines
COVID-19 = conditions: hospitalized COVID-19 patients; ref ClinicalTrials.gov NCT04776044; cited from earlier work
IAV PR8 NP = format: cell-based; conditions: MOI 0.01, 24 h; for reduction of IAV PR8 NP (NP/ERK2 normalized to solvent control): both cell lines

Q: For `O=C(O)c1ccc(F)c(F)c1Nc1ccc(I)cc1Cl` [zapnometinib, 2-(2-chloro-4-iodophenylamino)-N-3,4-difluoro benzoic acid], which EC50 [1] is on record?
A: 31.3 µM

Q: What about the EC50 (IAV RB1) of the same compound?
A: 6.36 µM

Q: And the “tolerability in phase I clinical trial” value [2]?
A: well tolerated

Q: And the “effect on ERK2 content in the cells” value (ERK2)?
A: does not affect

Q: And the “reduction of the virus titer” value (IAV PR8; 12.5 µM)?
A: ≥ 50%

Q: And the “reduction of the virus titer” value (IAV PR8; 25 µM)?
A: ≥ 50%

Q: What about the “reduction of the virus titer” value (IAV PR8; 100 µM) of the same compound?
A: > 90%

Q: And the EC50 (IAV PR8; Caco-2 cells, MOI 0.01, 24 h, read-out: EC50 value against IAV PR8)?
A: 5.72 µM

Q: What about the EC50 (IAV PR8; Calu-3 cells, MOI 0.01, 24 h, read-out: EC50 value against IAV PR8) of the same compound?
A: 7.13 µM

Q: What about the EC50 (IAV PR8; Influenza A virus, PR8, Caco-2, 24 h, Caco-2 cells, MOI 0.01, 24 h, read-out: EC50 value against IAV PR8) of the same compound?
A: 5.72 µM

Q: And the EC50 (IAV PR8; Influenza A virus, PR8, Calu-3, 24 h, Calu-3 cells, MOI 0.01, 24 h, read-out: EC50 value against IAV PR8)?
A: 7.13 µM

Q: And the EC50 (IAV PR8; Influenza A virus, PR8, summary for Calu-3 and Caco-2 cells, read-out: EC50 values for IAV PR8 in both cell lines)?
A: < 10 µM

Q: And the “reduction of SARS-CoV-2 N (N/ERK2 normalized to solvent control)” value (SARS-CoV-2 N; 12.5 µM)?
A: approximately 50%

Q: And the “reduction of SARS-CoV-2 N (N/ERK2 normalized to solvent control)” value (SARS-CoV-2 N; 50 µM)?
A: > 70%

Q: What about the “reduction of SARS-CoV-2 N (N/ERK2 normalized to solvent control)” value (SARS-CoV-2 N; 100 µM) of the same compound?
A: > 80%

Q: And the “lowest concentration at which SARS-CoV-2 N was significantly reduced compared to solvent control” value (SARS-CoV-2 N)?
A: 12.5 µM

Q: What about the “efficacy in terms of the primary endpoint, phase II clinical trial” value (COVID-19) of the same compound?
A: clinically relevant efficacy profile

Q: And the “safety profile, phase II clinical trial” value (COVID-19)?
A: favorable safety profile

Q: What about the “reduction of IAV PR8 NP (NP/ERK2 normalized to solvent control)” value (IAV PR8 NP; 12.5 µM) of the same compound?
A: approximately 50%

Q: And the “reduction of IAV PR8 NP (NP/ERK2 normalized to solvent control)” value (IAV PR8 NP; 50 µM)?
A: > 70%

Q: And the “reduction of IAV PR8 NP (NP/ERK2 normalized to solvent control)” value (IAV PR8 NP; 100 µM)?
A: > 80%

Q: And the “lowest concentration at which IAV PR8 NP was significantly reduced compared to solvent control” value (IAV PR8 NP)?
A: 0.39 µM

Reference: PMC10641236, “Influenza A virus replication has a stronger dependency on Raf/MEK/ERK signaling pathway activity than SARS-CoV-2” (Frontiers in Cellular and Infection Microbiology, 2023)
